Tests used:
[1] = target: T1, Corticotropin-releasing factor receptor 2 (Homo sapiens, UniProt Q13324)
T1 sequence (Q13324 whole entry): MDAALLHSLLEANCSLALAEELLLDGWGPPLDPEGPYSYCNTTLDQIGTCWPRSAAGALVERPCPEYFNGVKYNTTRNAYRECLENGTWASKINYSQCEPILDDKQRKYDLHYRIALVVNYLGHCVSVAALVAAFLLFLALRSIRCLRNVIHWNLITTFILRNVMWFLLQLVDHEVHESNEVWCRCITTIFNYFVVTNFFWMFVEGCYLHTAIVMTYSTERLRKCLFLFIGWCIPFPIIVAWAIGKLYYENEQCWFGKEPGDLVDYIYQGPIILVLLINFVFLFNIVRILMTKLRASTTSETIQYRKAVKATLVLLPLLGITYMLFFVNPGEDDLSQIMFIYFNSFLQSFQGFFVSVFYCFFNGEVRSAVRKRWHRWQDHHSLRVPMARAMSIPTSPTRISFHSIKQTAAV

[2] = target: Gamma-aminobutyric acid receptor subunit alpha-1/alpha-2/beta-2/gamma-2 (Homo sapiens, UniProt P14867+P18507+P47869+P47870); assay type: functional, cell-based
Sequence of Gamma-aminobutyric acid receptor subunit alpha-1/alpha-2/beta-2/gamma-2 (P14867 whole entry): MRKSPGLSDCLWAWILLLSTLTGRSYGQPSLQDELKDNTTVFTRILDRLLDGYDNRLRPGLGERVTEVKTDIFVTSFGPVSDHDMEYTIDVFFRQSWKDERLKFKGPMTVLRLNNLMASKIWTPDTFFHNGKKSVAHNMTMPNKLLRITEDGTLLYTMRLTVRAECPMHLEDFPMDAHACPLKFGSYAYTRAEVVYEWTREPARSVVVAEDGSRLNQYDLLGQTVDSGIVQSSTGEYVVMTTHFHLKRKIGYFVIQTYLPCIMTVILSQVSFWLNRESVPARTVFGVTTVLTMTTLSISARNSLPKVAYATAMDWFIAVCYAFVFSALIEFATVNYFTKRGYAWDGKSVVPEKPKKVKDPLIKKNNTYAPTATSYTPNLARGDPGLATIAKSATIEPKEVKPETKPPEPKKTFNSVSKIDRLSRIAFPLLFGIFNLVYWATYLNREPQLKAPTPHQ
Sequence of Gamma-aminobutyric acid receptor subunit alpha-1/alpha-2/beta-2/gamma-2 (P47870 whole entry): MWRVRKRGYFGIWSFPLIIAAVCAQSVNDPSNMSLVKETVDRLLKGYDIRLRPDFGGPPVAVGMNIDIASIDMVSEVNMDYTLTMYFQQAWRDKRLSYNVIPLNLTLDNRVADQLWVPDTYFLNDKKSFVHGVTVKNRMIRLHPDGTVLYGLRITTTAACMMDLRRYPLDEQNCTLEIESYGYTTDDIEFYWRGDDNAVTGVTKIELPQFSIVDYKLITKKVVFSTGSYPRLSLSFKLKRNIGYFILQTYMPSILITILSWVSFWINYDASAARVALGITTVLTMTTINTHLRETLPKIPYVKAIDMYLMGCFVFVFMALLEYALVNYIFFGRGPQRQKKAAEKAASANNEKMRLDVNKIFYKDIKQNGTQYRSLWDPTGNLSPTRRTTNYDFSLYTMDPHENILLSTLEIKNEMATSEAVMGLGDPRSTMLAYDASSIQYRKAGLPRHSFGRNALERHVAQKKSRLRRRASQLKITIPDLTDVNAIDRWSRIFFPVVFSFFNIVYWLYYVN
Sequence of Gamma-aminobutyric acid receptor subunit alpha-1/alpha-2/beta-2/gamma-2 (P18507 whole entry): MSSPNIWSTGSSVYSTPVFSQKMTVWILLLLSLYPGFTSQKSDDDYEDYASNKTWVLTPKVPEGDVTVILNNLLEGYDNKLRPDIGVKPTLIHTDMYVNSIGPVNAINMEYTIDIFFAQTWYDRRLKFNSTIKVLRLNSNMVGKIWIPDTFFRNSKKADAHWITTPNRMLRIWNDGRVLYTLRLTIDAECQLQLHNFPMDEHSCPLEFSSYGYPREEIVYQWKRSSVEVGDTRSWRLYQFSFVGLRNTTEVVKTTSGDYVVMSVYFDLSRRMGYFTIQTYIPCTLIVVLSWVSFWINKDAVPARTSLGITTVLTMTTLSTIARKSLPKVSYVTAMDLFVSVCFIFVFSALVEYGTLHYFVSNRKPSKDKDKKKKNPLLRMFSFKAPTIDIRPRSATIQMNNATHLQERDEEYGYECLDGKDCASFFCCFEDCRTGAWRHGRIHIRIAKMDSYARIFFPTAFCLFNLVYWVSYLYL
Sequence of Gamma-aminobutyric acid receptor subunit alpha-1/alpha-2/beta-2/gamma-2 (P47869 whole entry): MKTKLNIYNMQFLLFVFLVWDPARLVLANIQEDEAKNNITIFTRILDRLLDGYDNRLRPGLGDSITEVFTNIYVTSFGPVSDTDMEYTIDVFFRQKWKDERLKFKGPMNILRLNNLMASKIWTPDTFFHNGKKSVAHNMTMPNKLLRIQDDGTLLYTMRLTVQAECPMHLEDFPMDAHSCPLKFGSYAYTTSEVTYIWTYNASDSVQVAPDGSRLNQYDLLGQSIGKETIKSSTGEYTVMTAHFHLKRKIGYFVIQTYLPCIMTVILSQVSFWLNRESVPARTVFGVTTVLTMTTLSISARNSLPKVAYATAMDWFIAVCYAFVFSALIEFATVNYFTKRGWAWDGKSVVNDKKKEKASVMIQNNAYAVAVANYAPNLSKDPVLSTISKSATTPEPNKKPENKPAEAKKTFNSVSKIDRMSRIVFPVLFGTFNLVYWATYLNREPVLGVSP

Glucocorticoid receptor = target: T2, Glucocorticoid receptor (Homo sapiens, UniProt P04150)
T2 sequence (P04150 whole entry): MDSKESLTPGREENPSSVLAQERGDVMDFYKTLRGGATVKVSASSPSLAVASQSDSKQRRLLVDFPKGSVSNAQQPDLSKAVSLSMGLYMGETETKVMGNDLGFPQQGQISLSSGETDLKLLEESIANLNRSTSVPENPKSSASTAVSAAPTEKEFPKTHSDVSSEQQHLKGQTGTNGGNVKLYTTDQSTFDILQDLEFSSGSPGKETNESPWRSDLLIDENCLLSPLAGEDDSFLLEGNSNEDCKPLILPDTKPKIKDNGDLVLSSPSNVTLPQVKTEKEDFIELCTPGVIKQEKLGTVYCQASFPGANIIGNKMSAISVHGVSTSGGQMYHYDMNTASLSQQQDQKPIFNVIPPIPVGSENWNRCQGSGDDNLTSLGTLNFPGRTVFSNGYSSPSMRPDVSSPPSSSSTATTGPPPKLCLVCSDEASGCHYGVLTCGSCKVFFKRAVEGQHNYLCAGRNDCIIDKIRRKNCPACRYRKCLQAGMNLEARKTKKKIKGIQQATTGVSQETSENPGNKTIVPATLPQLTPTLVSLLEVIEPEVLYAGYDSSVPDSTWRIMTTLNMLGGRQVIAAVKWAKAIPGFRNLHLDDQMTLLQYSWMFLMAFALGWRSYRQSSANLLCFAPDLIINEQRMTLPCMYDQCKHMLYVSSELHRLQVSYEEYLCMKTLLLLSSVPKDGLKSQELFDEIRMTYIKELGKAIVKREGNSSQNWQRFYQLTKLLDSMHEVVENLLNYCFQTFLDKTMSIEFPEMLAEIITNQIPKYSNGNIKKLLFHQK

Mu-type opioid receptor = Mu-type opioid receptor (Homo sapiens, UniProt P35372); assay: biochemical; assay type: functional
Sequence of Mu-type opioid receptor (P35372 whole entry): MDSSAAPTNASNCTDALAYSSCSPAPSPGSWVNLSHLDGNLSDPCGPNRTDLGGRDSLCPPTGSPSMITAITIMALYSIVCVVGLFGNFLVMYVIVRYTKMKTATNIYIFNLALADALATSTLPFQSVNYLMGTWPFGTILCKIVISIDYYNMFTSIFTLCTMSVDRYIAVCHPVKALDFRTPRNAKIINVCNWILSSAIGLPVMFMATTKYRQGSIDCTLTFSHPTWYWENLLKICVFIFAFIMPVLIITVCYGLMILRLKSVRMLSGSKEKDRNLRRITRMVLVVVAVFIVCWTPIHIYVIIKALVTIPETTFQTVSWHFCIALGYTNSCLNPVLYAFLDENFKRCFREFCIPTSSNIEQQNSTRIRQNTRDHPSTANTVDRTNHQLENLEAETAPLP

Progesterone receptor = target: T3, Progesterone receptor (Homo sapiens, UniProt P06401)
T3 sequence (P06401 whole entry): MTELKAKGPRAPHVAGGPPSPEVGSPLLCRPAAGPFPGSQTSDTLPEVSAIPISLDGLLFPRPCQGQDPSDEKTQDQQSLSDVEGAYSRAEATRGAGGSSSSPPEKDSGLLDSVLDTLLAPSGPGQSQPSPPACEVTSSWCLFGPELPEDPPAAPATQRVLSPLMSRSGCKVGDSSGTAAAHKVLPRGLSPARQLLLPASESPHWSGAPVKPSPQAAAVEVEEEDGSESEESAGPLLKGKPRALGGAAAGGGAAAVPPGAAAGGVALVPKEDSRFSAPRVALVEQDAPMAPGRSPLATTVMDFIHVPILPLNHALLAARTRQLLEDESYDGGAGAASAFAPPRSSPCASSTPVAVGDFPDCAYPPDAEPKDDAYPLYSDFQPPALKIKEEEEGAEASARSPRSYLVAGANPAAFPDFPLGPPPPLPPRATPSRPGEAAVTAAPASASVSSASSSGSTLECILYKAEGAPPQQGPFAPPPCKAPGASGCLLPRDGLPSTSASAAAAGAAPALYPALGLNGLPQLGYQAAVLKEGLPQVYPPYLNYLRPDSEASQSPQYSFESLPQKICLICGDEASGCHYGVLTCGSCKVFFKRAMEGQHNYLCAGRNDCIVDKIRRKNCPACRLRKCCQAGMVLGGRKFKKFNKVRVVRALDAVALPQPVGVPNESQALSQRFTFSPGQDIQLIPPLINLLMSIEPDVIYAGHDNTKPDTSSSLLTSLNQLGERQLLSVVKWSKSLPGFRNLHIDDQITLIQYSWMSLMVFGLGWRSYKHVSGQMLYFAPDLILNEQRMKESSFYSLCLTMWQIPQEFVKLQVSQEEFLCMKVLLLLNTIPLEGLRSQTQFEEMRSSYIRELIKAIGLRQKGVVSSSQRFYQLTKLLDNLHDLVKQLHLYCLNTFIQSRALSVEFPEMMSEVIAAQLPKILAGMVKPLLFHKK

[3] = target: T4, Alpha-2A adrenergic receptor (Homo sapiens, UniProt P08913)
T4 sequence (P08913 whole entry): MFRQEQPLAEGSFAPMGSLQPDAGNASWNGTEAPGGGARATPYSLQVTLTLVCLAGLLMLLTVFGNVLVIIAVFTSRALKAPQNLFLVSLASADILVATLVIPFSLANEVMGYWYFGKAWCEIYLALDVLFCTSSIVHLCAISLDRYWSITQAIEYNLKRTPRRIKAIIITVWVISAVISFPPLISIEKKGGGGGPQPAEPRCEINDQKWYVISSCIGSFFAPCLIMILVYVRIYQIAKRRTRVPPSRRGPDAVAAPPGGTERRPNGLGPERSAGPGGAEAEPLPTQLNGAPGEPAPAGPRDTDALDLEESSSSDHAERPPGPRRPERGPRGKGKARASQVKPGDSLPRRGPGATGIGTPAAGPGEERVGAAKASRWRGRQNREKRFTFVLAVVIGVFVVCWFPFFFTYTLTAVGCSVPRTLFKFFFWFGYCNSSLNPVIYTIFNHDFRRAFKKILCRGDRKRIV
Further: assay procedure not described here.

In the case of `C=CC[C@@H]1/C=C(\C)C[C@H](C)C[C@H](OC)[C@H]2O[C@@](O)(C(=O)C(=O)N3CCCC[C@H]3C(=O)O[C@H](/C(C)=C/[C@@H]3CC[C@@H](O)[C@H](OC)C3)[C@H](C)[C@@H](O)CC1=O)[C@H](C)C[C@@H]2OC` [TACROLIMUS ANHYDROUS], the AC50 [1] is reported as over 30 µM, the AC50 [2] is reported as over 30 µM and the AC50 (Glucocorticoid receptor) is reported as over 30 µM. It also gave an AC50 (Mu-type opioid receptor) of over 30 µM, an AC50 (Progesterone receptor) of over 30 µM and an AC50 [3] of over 10 µM.
